Biological target: T1, SIRT1 (Homo sapiens, UniProt Q96EB6)
T1 sequence (Q96EB6 1-747): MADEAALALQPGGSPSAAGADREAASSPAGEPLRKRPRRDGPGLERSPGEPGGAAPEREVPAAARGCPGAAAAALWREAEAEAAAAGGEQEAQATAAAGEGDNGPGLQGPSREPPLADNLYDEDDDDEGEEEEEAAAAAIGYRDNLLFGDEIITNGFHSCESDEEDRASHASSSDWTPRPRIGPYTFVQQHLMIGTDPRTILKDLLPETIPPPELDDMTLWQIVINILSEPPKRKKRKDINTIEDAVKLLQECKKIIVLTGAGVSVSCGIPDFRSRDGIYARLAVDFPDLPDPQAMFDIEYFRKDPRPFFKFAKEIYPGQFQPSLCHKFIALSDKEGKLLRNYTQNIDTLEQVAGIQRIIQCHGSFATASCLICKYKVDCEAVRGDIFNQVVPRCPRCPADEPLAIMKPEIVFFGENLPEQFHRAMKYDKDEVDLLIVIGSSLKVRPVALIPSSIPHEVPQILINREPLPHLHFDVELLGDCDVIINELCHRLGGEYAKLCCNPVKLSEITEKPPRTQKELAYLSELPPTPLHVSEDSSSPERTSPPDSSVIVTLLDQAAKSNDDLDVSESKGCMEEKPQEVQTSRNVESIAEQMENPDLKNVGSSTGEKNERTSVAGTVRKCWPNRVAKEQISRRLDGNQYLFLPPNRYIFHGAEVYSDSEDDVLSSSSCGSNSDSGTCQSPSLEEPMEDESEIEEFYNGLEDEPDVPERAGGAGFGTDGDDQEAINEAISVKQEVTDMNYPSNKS
Assay: mass spectrometry based SIRT1 deacetylation assay (activation)
Assay type: biochemical
Details: 0.5 μM peptide substrate, 120 μM βNAD+, 10 nM SIRT1, 25 min at 25° C.; for EC1.5 (concentration of test compound that results in 150% activation of SIRT1): NA = not active in the assay; for Emax: read-out: % FOLD ACT. (percent maximum fold activation of SIRT1)
From the text: A mass spectrometry based assay was used to identify modulators of SIRT1 activity. The mass spectrometry based assay utilizes a peptide having 20 amino acid residues as follows: Ac-EE-K(biotin)-GQSTSSHSK(Ac)NleSTEG-K(5TMR)-EE-NH2 (SEQ ID NO: 1) wherein K(Ac) is an acetylated lysine residue and Nle is a norleucine. The peptide is labeled with the fluorophore 5TMR (excitation 540 nm/emission 580 nm) at the C-terminus. The sequence of the peptide substrate is based on p53 with several modifications. In addition, the methionine residue naturally present in the sequence was replaced with the norleucine because the methionine may be susceptible to oxidation during synthesis and purification.
Test compounds may be added to the reaction as described above. […] After the 25 minute incubation with SIRT1, 10 μL of 10% formic acid is added to stop the reaction. Reactions are sealed and frozen for later mass spec analysis. Determination of the mass of the substrate peptide allows for precise determination of the degree of acetylation (i.e. starting material) as compared to deacetylated peptide (product).
A control for inhibition of sirtuin activity is conducted by adding 1 μL of 500 mM nicotinamide as a negative control at the start of the reaction (e.g., permits determination of maximum sirtuin inhibition). A control for activation of sirtuin activity is conducted using 10 nM of sirtuin protein, with 1 μL of DMSO in place of compound, to determine the amount of deacetylation of the substrate at a given timepoint within the linear range of the assay. This timepoint is the same as that used for test compounds and, within the linear range, the endpoint represents a change in velocity.
For the above assay, SIRT1 protein was expressed and purified as follows. […] The protein was expressed by induction with 1 mM IPTG as an N-terminal His-tag fusion protein at 18° C. overnight and harvested at 30,000×g. Cells were lysed with lysozyme in lysis buffer (50 mM Tris-HCl, 2 mM Tris[2-carboxyethyl]phosphine (TCEP), 10 μM ZnCl2, 200 mM NaCl) and further treated with sonication for 10 min for complete lysis. The protein was purified over a Ni-NTA column (Amersham) and fractions containing pure protein were pooled, concentrated and run over a sizing column (Sephadex S200 26/60 global). The peak containing soluble protein was collected and run on an Ion-exchange column (MonoQ). Gradient elution (200 mM-500 mM NaCl) yielded pure protein. This protein was concentrated and dialyzed against dialysis buffer (20 mM Tris-HCl, 2 mM TCEP) overnight. The protein was aliquoted and frozen at −80° C. until further use.
Sirtuin modulating compounds that activated SIRT1 were identified using the assay described above and are shown below in Table 3. The EC1.5 values represent the concentration of test compounds that result in 150% activation of SIRT1. NT means that the compound was not tested using the indicated assay. NA means that the compound was not active in the indicated assay.

Row | SMILES | EC1.5 (concentration of test compound that results in 150% activation of SIRT1) [NM] | Emax [%] | % FOLD ACT. (percent maximum fold activation of SIRT1) [%]
1 | O=C(Nc1ccccc1-c1nc2cc(CN3CCOCC3)cnc2s1)c1ccc2ccccc2c1 [Compound 96] | 1060 | 162 | 
2 | O=C(Nc1ccccc1-c1nc2cc(CN[C@@H]3CCC[C@H]3O)cnc2s1)c1ccc2ccccc2n1 [Compound 121] | 750 | 291 | 
3 | NC1CCN(Cc2cnc3sc(-c4ccccc4NC(=O)c4ccc5ccccc5n4)nc3c2)CC1 [Compound 115] | 620 | > 500 | 
4 | CC(C)NCc1cnc2sc(-c3ccccc3NC(=O)c3cccc(-c4ccccc4)c3)nc2c1 [Compound 19] | 722 | 198 | 
5 | O=C(Nc1ccccc1-c1nc2cc(CN3CCOCC3)cnc2s1)c1ccnc(-c2ccccc2)n1 [Compound 72] |  | 100 | 
6 | N[C@@H]1CCN(Cc2cnc3sc(-c4ccccc4NC(=O)c4ccc5ccccc5n4)nc3c2)C1 [Compound 109] | 270 | > 500 | 
7 | COCCN1CCN(Cc2cnc3sc(-c4ccccc4NC(=O)c4cccc(-c5ccccn5)c4)nc3c2)CC1 [Compound 34] | 281 | 492 | 
8 | O=C(Nc1ccccc1-c1nc2cc(CN3CCNCC3)cnc2s1)c1nc2ccc(F)cc2o1 [Compound 126] |  | 100 | 
9 | O=C(Nc1ccccc1-c1nc2cc(CN3CCOCC3)cnc2s1)c1cncc(-c2cccc(F)c2)c1 [Compound 51] | 1640 | 172 | 
10 | C[C@@H]1CN(Cc2cnc3sc(-c4ccccc4NC(=O)c4cccc(-c5ccncc5)c4)nc3c2)C[C@H](C)N1 [Compound 17] | 683 | 360 | 
11 | O=C(Nc1ccccc1-c1nc2cc(CN3CCOCC3)cnc2s1)c1ccn(-c2ccccc2)n1 [Compound 156] | 674 | 443 | 
12 | O=C(Nc1ccccc1-c1nc2cc(CN3CCOCC3)cnc2s1)c1cc(-c2ccccc2)no1 [Compound 2] |  | 132 | 
13 | CC(C)NCc1cnc2sc(-c3ccccc3NC(=O)c3cccc(-c4ccncc4)c3)nc2c1 [Compound 22] | 2620 | 417 | 
14 | O=C(Nc1ccccc1-c1nc2cc(CN3CCNCC3)cnc2s1)c1cccc(-c2ccncc2)c1 [Compound 10] | 492 | 316 | 
15 | O=C(Nc1ccccc1-c1nc2cc(CN3CCNCC3)cnc2s1)c1cccc(-n2cccn2)c1 [Compound 44] | 397 | 603 | 
16 | O=C(Nc1ccccc1-c1nc2cc(CN[C@H]3CC[C@H](O)CC3)cnc2s1)c1ccc2ccccc2n1 [Compound 117] | 480 | 324 | 
17 | COCCN1CCN(Cc2cnc3sc(-c4ccccc4NC(=O)c4cncc(-c5ccccc5)c4)nc3c2)CC1 [Compound 35] | 554 | 234 | 
18 | O=C(Nc1ccccc1-c1nc2cc(CN3CCOCC3)cnc2s1)c1cccc(-c2ccncc2)c1 [Compound 6] | 746 | 274 | 

Row | SMILES | EC1.5 (concentration of test compound that results in 150% activation of SIRT1) [NM] | Emax [%] | % FOLD ACT. (percent maximum fold activation of SIRT1) [%]
19 | O=C(Nc1ccccc1-c1nc2ccc(CN3CCNCC3)nc2s1)c1cnc2ccccc2n1 [Compound 66] |  | 336 | 
20 | O=C(Nc1ccccc1-c1nc2cc(CN3CCOCC3)cnc2s1)c1cncc(-c2ccccc2F)c1 [Compound 50] | 533 | 207 | 
21 | O=C(Nc1ccccc1-c1nc2cc(CN3CCOCC3)cnc2s1)c1cccc(-c2ccccc2F)n1 [Compound 52] | 357 | 411 | 
22 | COCCN1CCN(Cc2cnc3sc(-c4ccccc4NC(=O)c4cccc(-c5ccncc5)c4)nc3c2)CC1 [Compound 59] | 492 | 279 | 
23 | COCCN1CCN(Cc2cnc3sc(-c4ccccc4NC(=O)c4cccc(-c5ccc(C#N)cc5)n4)nc3c2)CC1 [Compound 144] | 559 | 402 | 
24 | COCCN1CCN(Cc2cnc3sc(-c4ccccc4NC(=O)c4cccc(-c5ccccc5F)n4)nc3c2)CC1 [Compound 134] | 69 | 500 | 
25 | N[C@@H]1CCN(Cc2cnc3sc(-c4ccccc4NC(=O)c4ccc5ccccc5n4)nc3c2)C1 [Compound 119] | 390 |  | >500
26 | Cc1nc(-c2cccnc2)sc1C(=O)Nc1ccccc1-c1nc2cc(CN[C@H]3CCNC3)cnc2s1 [Compound 82] | 878 | 224 | 
27 | O=C(Nc1ccccc1-c1nc2cc(CN[C@H]3CCNC3)cnc2s1)c1ccc2ccccc2n1 [Compound 120] | 820 | > 500 | 
28 | O=C(Nc1ccccc1-c1nc2cc(CN3CCNCC3)cnc2s1)c1cnc2ccccc2n1 [Compound 63] | 859 | 303 | 
29 | O=C(Nc1ccccc1-c1nc2cc(CN3CCCC3=O)cnc2s1)c1cccc(-c2ccccc2)c1 [Compound 149] | 557 | 216 | 
30 | O=C(Nc1ccccc1-c1nc2cc(CN3CCOCC3)cnc2s1)c1cccc(-c2ncccn2)c1 [Compound 38] | 548 | 292 | 
31 | COCCN1CCN(Cc2cnc3sc(-c4ccccc4NC(=O)c4cccc(-c5ccccc5)c4)nc3c2)CC1 [Compound 33] | 91 | 533 | 
32 | O=C(Nc1ccccc1-c1nc2cc(CN3CCOCC3)cnc2s1)c1cn2ccccc2n1 [Compound 111] | 1610 | 427 | 
33 | O=C(Nc1ccccc1-c1nc2cc(CN3CC[C@@H](F)C3)cnc2s1)c1ccc2ccccc2n1 [Compound 113] | 370 | 232 | 
34 | O=C(Nc1ccccc1-c1nc2cc(CN3CCOCC3)cnc2s1)c1cnc2ccccc2c1 [Compound 106] | 69840 | 189 | 
35 | NC1CCN(Cc2cnc3sc(-c4ccccc4NC(=O)c4cccc(-c5ccccn5)c4)nc3c2)CC1 [Compound 21] | 162 | 906 | 
36 | COCCN1CCN(Cc2cnc3sc(-c4ccccc4NC(=O)c4cnc5ccccc5n4)nc3c2)CC1 [Compound 130] | 990 | 161 | 

— patent publication US8268862B2, “Sirtuin modulating compounds” (Sirtris Pharmaceuticals, Inc., priority 2007, dated 2012)
